Measured values taken from article PMC8043168, “Tribolium castaneum defensin 1 kills Moraxella catarrhalisin an in vitro infection model but does not harm commensal bacteria” (Virulence, 2021).
Bridge positions count the residues as written; N and C are the ends.

How the values were obtained:
M. catarrhalis = assay type: cell-based, Moraxella catarrhalis
Experimental: Colonies of M. catarrhalis were grown on sheep blood agar plates for 12 h at 37°C and 5% CO2 before transfer to brain heart infusion (BHI) medium (Carl Roth, Karlsruhe, Germany) at an initial concentration of 1.6 × 10^7 cells/ml (OD600 = 0.08) as determined using an Ultraspec 10 cell densitometer (Amersham BioSciences, Little Chalfont, UK). Bacteria were cultivated in a shaking incubator at 37°C until the concentration reached 1.2 × 10^8 cells/ml (OD600 = 0.6) and then diluted to 2 × 10^6 cells/ml (OD600 = 0.011). To establish the optimal concentration ranges for AMP activity, defensin 1 was prepared as a two-fold dilution series from 12.5 µM to 1.56 µM and was added to the bacterial cultures, which were incubated as above for a further 16 h. Untreated cultures were used as controls. The OD600 was measured automatically at 30-min intervals using an Infinite M200 Pro plate reader (Tecan Life Sciences, Männedorf, Switzerland). […] They were cultivated for a further 15 h at 37°C and 5% CO2 in serial dilution before manual counting of the colonies on each plate.
Table S1. Detailed characterization of tested AMPs. M.c. were grown to an Optical Density (OD) 600nm of 0.6 in Brain Heart Infusion (BHI) Medium.
Upon dilution to OD600nm= 0.01, M.c. were incubated with declining amounts of indicated AMPs (25 μM to 0.048 μM at halving intervals) at 37°C with 5% CO2.
OD600nm was measured at 30 min intervals to establish the minimal inhibitory concentration (MIC). pI = isoelectric point, MW = molecular weight in kiloDalton.
MIC AMP name AMP class Organism Amino Acid Sequence pIMWPurity Retention time [min] modification
0.195 µM Cecropin A α-helical Hyalophora cecropia […] 10.75 4.00 91.06 7.30 n-term. amidation
0.39 µM Sarcotoxin IA α-helical Sarcophaga peregrina […] 11.07 4.16 91.37 9.37 n-term. amidation
~ 25µM Stomoxyn α-helical Stomoxys calcitrans […] 11.26 4.40 95.34 10.08 n-term. amidation
~ 25µM Spinigerin linear Pseudacanthotermes spiniger […] 11.07 3.00 96.23 12.45 none
>25µM Apidaecin Ia proline-rich Apis mellifera GNNRPVYIPQPRPPHPRI 11.71 2.11 92.98 16.91 none
>25µM Drosocin proline-rich Drosophila melanogaster GKPRPYSPRPTSHPRPIRV 12.01 2.20 92.86 11.65 none
>25µM Pyrrhocoricin proline-rich Pyrrhocoris apterus […] 10.27 2.34 93.17 11.38 none
>25 µM Metalnikowin-1 proline-rich Palomena prasina […] 9.98 1.84 92.85 13.36 none
>25 µM Metalnikowin-2A proline-rich Palomena prasina […] 9.98 1.84 92.39 10.85 none
>25 µM Metchnikowin-1 proline-rich Drosophila melanogaster […] 10.74 3.03 99.06 11.50 none
>25 µM Metchnikowin-2 proline-rich Drolophila melanogaster […] 11.54 3.04 97.16 11.46 none
12.5 µM Defensin 1 disulfide stabilized Tribolium castaneum […] 9.7 4.83 90.53 18.41 none
~ 25 µM Cecropin-like α-helical Lucilia sericata[…] 10.35 6.66 90.28 12.01 none
0.195 µM Cecropin α-helical Galleria mellonella […] 10.21 4.21 93.61 12.33 n-term. amidation
0.37 µM Cecropin α-helical Lucilia sericata […] 10.56 4.26 94.31 10.83 n-term. amidation
12.5 µM Stomoxyn α-helical Lucilia sericata […] 10.73 4.38 90.37 13.35n-term. amidation n-term.
1.56 µM Cecropin(Sarcotoxin) α-helical Eristalis tenax […] 10.56 4.14 90.80 9.76 none

[1] = tested on: M. catarrhalis in human blood-derived macrophages (BDMs); experiment: Colony forming unit assay in blood-derived macrophages infected with M. catarrhalis; assay type: cell-based, Moraxella catarrhalis; details: MOI 0.5 or 1; defensin 1 12.5 µM or sarcotoxin 1 C 0.39 µM added 1 or 5 h post-infection; further 16 h; lysis with 1% saponin, plating; vs assays without peptide
Experimental: The absolute number of bacterial cells after treatment with defensin 1 or sarcotoxin 1 C was determined by counting the colony forming units (CFUs). M. catarrhalis overnight cultures prepared as described above were grown to the mid-exponential phase (~5 x 10^8 cells/ml) in BHI medium before dilution to 2 × 10^7 cells/ml in PBS containing 0.15% gelatin, and blood-derived macrophages (BDMs) were infected with a multiplicity of infection (MOI) of 0.5 or 1. […] Cells were then incubated for an additional 16 h at 37°C and 5% CO2 and then lysed with 1% saponin. Lysates were plated on sheep blood agar and cultivated for a further 15 h at 37°C and 5% CO2 before manual counting of the colonies on each plate.
All donors gave informed written consent (Ethics approval number: 161/17). Human BDMs were cultured as previously described. Briefly, primary human monocytes were isolated from donor buffy coats by selection for CD14^+ cells using CD14 Microbeads (Miltenyi Biotec, Bergisch Gladbach, Germany). Monocytes were grown in RPMI1640 medium with 1% human AB serum at 37°C and 5% CO2 on ultra-low attachment plates (Sigma-Aldrich, Munich, Germany). After 6 days, differentiated macrophages were detached, seeded at the desired density and incubated for 24 h before further analysis.

BDMs activated by LPS = experiment: Sterile activation of BDMs by LPS; assay type: cell-based, human; details: defensin 1 added 1 h after LPS
Experimental: The presence of cytokines in the BDM supernatant after infection and treatment with 12.5 µM defensin 1 was assessed using the MAGPIX Multiplex ELISA (Luminex, Austin, TX, USA). BDM supernatants were prepared as recommended for the MAGPIX system. The cytokine panel comprised MIP1-α, MCP1, IL-1β, IL-6, IL-8, IL-10, IL-12p70, IL-23, LAP and TNF-α.
Statistical interpretation of the multiplex ELISA data required the incorporation of data points outside the detection range and adjustments for the effect of parallel technical measurements from the same biological samples. We therefore used the Hodges and Lehmann nonparametric aligned ranks test to compare cytokine secretion by treatment time within treatment groups and between the following control and treatment groups: […]

E. coli = experiment: Growth kinetics of commensal E. coli; assay type: cell-based, Escherichia coli; details: liquid LB medium, 37°C, OD600 every 30 min; defensin 1 12.5 µM, sarcotoxin 1 C 0.39 µM
Experimental: For the analysis of commensal bacteria, E. faecalis was grown on Columbia agar plates or in liquid BHI medium, and E. coli was grown on McConkey agar or in liquid LB medium. After overnight culture on agar plates at 37°C and 5% CO2, both species were transferred to liquid medium at an initial OD600 of 0.005. The cultures were maintained in a shaking incubator at 37°C, and the OD600 was measured automatically at 30-min intervals as above.

macrophages = details: cited from earlier work
Excerpt: Defensin 1 limited the expressio ...

[2] = up to a concentration of 100 µM; cited from earlier work

H-VTCDLLSAEAKGVKVNHAACAAHCLLKRKRGGYCNKRRICVCRN-OH (disulfide 3-34, 20-40, 24-42 (inferred)) [Defensin 1]
MIC (minimal inhibitory concentration) (M. catarrhalis; 12 h): 12.5 µM
concentration that completely abolished/inhibited the growth of M. catarrhalis (M. catarrhalis; growth curve in BHI, two-fold dilution series, 37°C, 16 h, OD600 every 30 min): 12.5 µM
M. catarrhalis CFU count (bacterial burden) in infection assay of primary BDMs [1]: reduced the bacterial burden
sterile activation of BDMs by LPS in presence of peptide (BDMs activated by LPS): not significantly affected
effect on growth of E. coli (E. coli): minor growth delay
toxicity toward macrophages (macrophages): nontoxic
hemolytic activity [2]: minimal hemolytic activity
